Where “and” joins values, the source holds several entries; their conditions need not be identical. Equal values may be shown once.
What was measured:
Assay type in all cases: functional, Homo sapiens
U2OS [1] = assay: (§1) Here: values are normalized to the negative (DMSO; defined as 0% autophagy induction) and positive (250nM Torin1; mTOR inhibitor; defined as maximal inducer of autophagy = 100%) control compounds and represented as % of autophagy induction. […] The impact of autophagy induction on cells is complex and depends on the affected target. As such, the magnitude of a phenotype may not be equally mirrored in the %-value of autophagy induction and vice versa. The dynamics of the induction may indicate the mode of activation: e.g. activation via phosphorylation or a signaling cascade may occur fast, while activation via transcription factors may take considerably longer. […] Of note, treatment concentrations may be sub-optimal for specific compounds, leading to false negative annotations.; details: Culturing Media DMEM, 1 % Penicillin/Streptomycin, 10% Fetal bovin serum Add-On: No, Screening Media Control DMEM, Screening Media Samples DMEM
TERT-RPE1 = assay: as §1; details: Culturing Media DMEM/F12 (1:1), 1 % Penicillin/Streptomycin, 10% Fetal bovin serum Add-On: No, Screening Media Control DMEM/F12 (1:1), Screening Media Samples DMEM/F12 (1:1)
U2OS [2] = assay: as §1; details: Culturing Media DMEM, 1 % Penicillin/Streptomycin, 10% Fetal bovin serum Add-On: No, Screening Media Control DMEM, Screening Media Samples DMEM; remark: listed apart in the source
[3] = Compound Concentration 0.5 uM, Timepoint 12 hours
[4] = Compound Concentration 0.5 uM, Timepoint 24 hours
[5] = Compound Concentration 0.5 uM, Timepoint 36 hours
[6] = Compound Concentration 0.5 uM, Timepoint 60 hours
[7] = Compound Concentration 2 uM, Timepoint 12 hours
[8] = Compound Concentration 2 uM, Timepoint 24 hours
[9] = Compound Concentration 2 uM, Timepoint 36 hours
[10] = Compound Concentration 2 uM, Timepoint 60 hours
[11] = Compound Concentration 10 uM, Timepoint 12 hours
[12] = Compound Concentration 10 uM, Timepoint 24 hours
[13] = Compound Concentration 10 uM, Timepoint 36 hours
[14] = Compound Concentration 10 uM, Timepoint 60 hours
[15] = Compound Concentration 0.5 uM, Timepoint 12 hours, 12 h, 0.5 µM
[16] = Compound Concentration 0.5 uM, Timepoint 24 hours, 24 h, 0.5 µM
[17] = Compound Concentration 0.5 uM, Timepoint 36 hours, 36 h, 0.5 µM
[18] = Compound Concentration 0.5 uM, Timepoint 60 hours, 60 h, 0.5 µM
[19] = Compound Concentration 2 uM, Timepoint 12 hours, 12 h, 2 µM
[20] = Compound Concentration 2 uM, Timepoint 24 hours, 24 h, 2 µM
[21] = Compound Concentration 2 uM, Timepoint 36 hours, 36 h, 2 µM
[22] = Compound Concentration 2 uM, Timepoint 60 hours, 60 h, 2 µM
[23] = Compound Concentration 10 uM, Timepoint 12 hours, 12 h, 10 µM
[24] = Compound Concentration 10 uM, Timepoint 24 hours, 24 h, 10 µM
[25] = Compound Concentration 10 uM, Timepoint 36 hours, 36 h, 10 µM
[26] = Compound Concentration 10 uM, Timepoint 60 hours, 60 h, 10 µM

Row | Compound | autophagy induction (U2OS [1]; [3]) [%] | autophagy induction (U2OS [1]; [4]) [%] | autophagy induction (U2OS [1]; [5]) [%] | autophagy induction (U2OS [1]; [6]) [%] | autophagy induction (U2OS [1]; [7]) [%] | autophagy induction (U2OS [1]; [8]) [%] | autophagy induction (U2OS [1]; [9]) [%] | autophagy induction (U2OS [1]; [10]) [%] | autophagy induction (U2OS [1]; [11]) [%] | autophagy induction (U2OS [1]; [12]) [%] | autophagy induction (U2OS [1]; [13]) [%] | autophagy induction (U2OS [1]; [14]) [%] | autophagy induction (TERT-RPE1; [15]) | autophagy induction (TERT-RPE1; [16]) | autophagy induction (TERT-RPE1; [17]) | autophagy induction (TERT-RPE1; [18]) | autophagy induction (TERT-RPE1; [19]) | autophagy induction (TERT-RPE1; [20]) | autophagy induction (TERT-RPE1; [21]) | autophagy induction (TERT-RPE1; [23]) | also measured
1 | Cl.Clc1cccc(COc2cncc(N3CCNCC3)n2)c1 | -8.837 | -13.8803 | -7.736 | -11.4823 | 2.897 | 5.801 | -1.494 | -5.088 | 27.4058 | 16.7462 | 7.428 | 3.616 | -4.107% and -8.741% | -3.275% and -10.2873% | -5.346% and -10.5791% | -7.219% and -10.0498% | 0.7021% and -1.765% | 0.6926% and -5.584% | 0.3671% and -11.5088% | 10.122% and -0.2214% | autophagy induction (TERT-RPE1; [22]): -2.572% and -13.6901%; autophagy induction (TERT-RPE1; [24]): 9.832% and 0.1054%; autophagy induction (TERT-RPE1; [25]): 9.982% and -0.986%; autophagy induction (TERT-RPE1; [26]): 11.761% and 2.73%; autophagy induction (U2OS [2]; [3]): 7.085%; autophagy induction (U2OS [2]; [4]): -1.5773%; autophagy induction (U2OS [2]; [5]): -58.983%; autophagy induction (U2OS [2]; [6]): -0.334%; autophagy induction (U2OS [2]; [7]): 2.459%; autophagy induction (U2OS [2]; [8]): 2.019%; autophagy induction (U2OS [2]; [9]): -56.8827%; autophagy induction (U2OS [2]; [10]): 0.5358%; autophagy induction (U2OS [2]; [11]): -3.089%; autophagy induction (U2OS [2]; [12]): 5.923%; autophagy induction (U2OS [2]; [13]): -56.0685%; autophagy induction (U2OS [2]; [14]): -1.858%
2 | C[C@@H](NCCc1ccc(O)cc1)[C@@H](O)c1ccc(O)cc1.Cl (relative stereo) | 14.7038 | 0.5598 | 0.6043 | -0.5871 | 18.1678 | -0.878 | -8.358 | -12.0518 | -0.9523 | -16.8429 | -21.0427 | -26.9578 | 5.631% and 0.2084% | 6.073% and -4.011% | 3.7656% and -2.603% | -3.104% and -1.391% | 5.905% and 3.931% | 4.872% and 1.792% | 4.017% and -0.1457% | -0.5838% and 12.3967% | autophagy induction (TERT-RPE1; [22]): -2.448% and 5.167%; autophagy induction (TERT-RPE1; [24]): -3.853% and 16.5093%; autophagy induction (U2OS [2]; [3]): -6.804%; autophagy induction (U2OS [2]; [4]): -1.218%; autophagy induction (U2OS [2]; [5]): -57.9641%; autophagy induction (U2OS [2]; [6]): 0.9422%; autophagy induction (U2OS [2]; [7]): -7.529%; autophagy induction (U2OS [2]; [8]): -0.8348%; autophagy induction (U2OS [2]; [9]): -57.3104%; autophagy induction (U2OS [2]; [10]): -0.1418%; autophagy induction (U2OS [2]; [11]): -2.903%; autophagy induction (U2OS [2]; [12]): -0.1533%; autophagy induction (U2OS [2]; [13]): -57.4385%; autophagy induction (U2OS [2]; [14]): 1.624%
3 | CN1CCCC(n2nc(Cc3ccc(Cl)cc3)c3ccccc3c2=O)CC1.Cl (stereo not given) [AZELASTINE HYDROCHLORIDE] | 28.6217 | 20.8368 | 11.7893 | 4.08 | -10.9736 | -5.743 | -1.742 | -7.358 | 1.941 | 10.8687 | 9.578 | 17.8748 | -4.87% and -1.0131% | -4.869% and -0.0662% | -3.53% and 2.514% | -2.083% and 5.845% | 2.2259% and 11.1438% | 1.534% and 9.267% | 3.816% and 8.147% | 7.066% and 3.619% | autophagy induction (TERT-RPE1; [24]): 11.8407% and 4.087%; autophagy induction (TERT-RPE1; [25]): 14.8577% and 6.608%; autophagy induction (TERT-RPE1; [26]): 14.3498% and 13.0687%; autophagy induction (U2OS [2]; [3]): -1.752%; autophagy induction (U2OS [2]; [4]): -3.995%; autophagy induction (U2OS [2]; [5]): 606.483%; autophagy induction (U2OS [2]; [6]): -3.291%; autophagy induction (U2OS [2]; [7]): -6.53%; autophagy induction (U2OS [2]; [8]): -3.506%; autophagy induction (U2OS [2]; [9]): -60.9405%; autophagy induction (U2OS [2]; [10]): -3.3303%; autophagy induction (U2OS [2]; [11]): -10.1026%; autophagy induction (U2OS [2]; [12]): -0.8464%; autophagy induction (U2OS [2]; [13]): -60.027%; autophagy induction (U2OS [2]; [14]): -3.2037%

Source: ChEMBL document CHEMBL5724696, “Autophagy assay results for EUbOPEN Chemogenomics Library” (2024)
